Key:
Assay type in all cases: in vivo
[1] = test system: Pancreatic juice secretion of the rat; experiment: Pancreatic juice secretion of the rat after subcutaneous administration of secretin with depot bodies; conditions: rat, subcutaneous, 5 CU/kg secretin + 10 mg depot body/animal
Description: Secretin preparations for subcutaneous application which contained the depot bodies specified in the following Table were tested in animal experiments. In the experimental procedure chosen, 5 to 8 male rats weighing 300 to 500 g each are administered subcutaneously 5 CU/kg of secretin (CU means clinical unit) and 10 mg of the depot body to be tested each in aqueous solution or suspension.
The animals remain without food for 18 hours prior to the test, but they are given water ad libitum. Under urethane anaesthesia (5 ml/kg i.m. of 25% urethane) the abdomen is opened by median section after tracheotomy, and the pylorus is ligated. The ductus choledochus is tied off in its proximal part near the porta hepatis, and the bile is led into the duodenum via a polyethylene tube of a diameter of […]. A cannula or catheter is inserted into the distal part of the bile duct, into which the numerous pancreatic ducts open, immediately before it opens into the duodenum, and the volume of the secretion running off is measured in 60 minute intervals. Following a preliminary run of 60 minutes the preparations are administered.
L means the compound known from literature and characterized by the melting point, optionally UV, IR or NMR. A to C relate to the preparation according to Example 1, process A to C. These compounds were characterized by ultimate analysis. The third column indicates the percentage by which the pancreatic secretion is above the basal secretion after 5 hours (calculated on the control=100%). This value is a measure for the depot effect of the depot body tested. Column 4 indicates the intensification of the secretin effect, with the total pancreatic juice secretion having been given over 5 hours as compared with the control (0.9% of NaCl)=1.

pancreatic juice = experiment: Pancreatic juice production in rats after rectal administration of secretin suppository with or without depot body
Description: The intensified effect of secretin in the form of rectally administrable preparations due to the depot bodies used according to the invention becomes evident from the drawing. In a test carried out on 8 rats each weighing 0.5 kg, 100 μg of secretin in a suppository of a weight of 73 mg cause the production of 92 μl of pancreatic juice (curve 1). With the addition of 25 mg of 3,5-dihydroxybenzoyl-L-tyrosine the volume of pancreatic juice rose to 1778 μl (curve 2). This corresponds to an increase of the effect to about 20 times its original value. […] In the present case the secretin dose has been chosen very high in order to obtain a measurable volume also without additive.
With a non-maximum stimulation in the normal dose range (about half the dose), the increase of the effect is about 50-fold.

[2] = test system: pancreatic juice secretion; experiment: Biological effect of rectally administered secretin measured via pancreatic juice secretion, compared with subcutaneous injection; conditions: secretin in suppositories or rectal capsules without depot body
Description: Many medicaments may be incorporated in suppositories and administered rectally. They are sufficiently well absorbed in this form. […] For example, if secretin is administered by this route, the biological effect which is measured via pancreatic juice secretion is only about 1% of the effect obtained with subcutaneous injection.

[3] = rats, rectal, 100 μg secretin + 25 mg depot body

Row | Compound | Δ% vs. control (percentage by which the pancreatic secretion is above the basal secretion after 5 hours) ([1]; after 5 hours, control=100%, measure of depot effect) | Rel. Intensity of effect over 5 hours (total pancreatic juice secretion over 5 hours as compared with control) ([1]; control (0.9% of NaCl)=1) | volume of pancreatic juice (pancreatic juice; 8 rats of 0.5 kg, rectal, 100 μg secretin suppository with addition of 25 mg depot body (curve 2)) | increase in efficacy, rectal versus subcutaneous application (in words) (pancreatic juice; comparison of routes) | increase of the effect relative to original value (secretin suppository without additive) (pancreatic juice; [3]) | protracted action (in words) (pancreatic juice; [3]) | increase of the effect (pancreatic juice; rectal, non-maximum stimulation in the normal dose range (about half the dose)) | biological effect of rectal administration relative to effect obtained with subcutaneous injection [2] | production of pancreatic juice (pancreatic juice; 8 rats of 0.5 kg, rectal, 100 μg secretin in 73 mg suppository, no additive (curve 1))
1 | O=C(N[C@@H](Cc1ccc(O)cc1)C(=O)O)c1cc(O)cc(O)c1 [3,5-Dihydroxybenzoyl-L-tyrosine] | 76% | 9.2 | 1778 µL | greater increase in efficacy when applied rectally than with subcutaneous application | about 20 times | a protracted action can also be observed | about 50 fold |  | 
2 | secretin [reference compound] |  |  |  |  |  |  |  | about 1% | 92 µL
